US10443044B2, “Generating cardiac progenitor cells from pluripotent stem cells using isoxazole or isoxazole like compounds” (IPS Heart, priority 2014, dated 2019)
Entries after “also recorded” stand apart in the source; their conditions may differ.

Columns and labels:
[1] = tested on: DNA methyltransferase (DNMT); test: DNA methyltransferase (DNMT) activity assay in small molecule treated SiPS; format: cell-based, mouse
Description: (§1) In order to direct SiPS towards cardiac lineage cells, they were treated with a small molecule (Isoxazole, 20 uM, Sigma-Aldrich or ISX-9, StemCell Technologies, Inc Vancouver, BC) for five days and analyzed for DNA methyltransferase (Dnmt) activity, cell proliferation, and cardiac gene expression.
Nuclear extracts were isolated using the NE-PER Nuclear and Cytoplasmic Extraction Kit (Thermo Scientific, IL USA). Total DNMT activity was determined using an EpiQuik DNA methyltransferase activity assay kit (Epigentek, Brooklyn, N.Y.) per manufacturer's protocol. Enzyme activity for samples and controls was measured on a microplate reader (Hidex Chameleon, Finland) at 450 nm and DNMT activity (OD/h/ml) was calculated according to the formula: (Sample OD−blank OD)/(sample volume)×1000.

SiPS = test: Cell proliferation assay (MTS); format: cell-based, mouse; conditions: treated vs non treated SiPS, p<0.01; listed as small molecule
Description: as §1
The cell proliferation assay was performed with the use of the MTS [3-(4,5-dimethylthiazol-2-yl)-5-(3-carboxymethoxyphenyl)-2-(4-sulfophenyl)-2H-tetrazolium] assay according to the manufacturer's recommendations (Promega). The plates were read at 490 nm using an automated ELISA plate-reader for the quantity of formazan product which was directly proportional to the number of living cells in culture.

IPS cells [2] = test: Oxidant induced apoptosis, TUNEL assay; format: cell-based, mouse; conditions: pretreated IPS vs non-treated IPS, listed as small molecule
Description: In FIG. 3A, apoptosis was determined by TUNEL assay. […] All values were expressed as mean±SEM, * p<0.05 vs. control.
as §1

IPS cells [3] = test: Cytochrome c translocation to cytoplasm after H2O2, immunostaining; format: cell-based, mouse; conditions: after exposure to H2O2 (100 μmol), vs non-treated IPS cells
Description: Immunostaining of cytochrome c in non-treated and small molecule, isoxazole or isoxazole like compounds treated IPS cells after exposure to H2O2 ([…]), (merged images with DAPI), (original magnifications; 200×).
as §1

Nkx-2.5 = test: Cardiac gene expression, RT-PCR and immunostaining; format: cell-based, mouse
Description: as §1
Total RNA from small molecule treated and non-treated SiPS cells was isolated using RNeasy mini kit (Qiagen, Maryland, USA) and Omniscript Reverse Transcription kit (Qiagen, Maryland, USA) was used for the respective cDNA synthesis per manufacturer's instructions. […] PCR conditions included initial denaturation at 95° C. for 4 minutes, 32 cycles of denaturation at 95° C. for 1 minute, annealing at 55° C. for 1 minute, extension at 72° C. for 1 minute and final extension at 72° C. for 7 minutes. The PCR products were separated on 1.5% agarose gel, stained with ethidium bromide and visualized and photographed on a UV transluminator (Bio-Rad, USA).
For immunocytochemistry, differentiated colonies of SiPS were immunostained with respective specific primary antibodies (anti-Oct3/4, anti-Sox2, anti-Nanog antibodies, all at 1:100 concentration; Cell Signaling, Danvers, USA). […] The primary antibody-antigen reaction was detected with fluorescently conjugated specific secondary antibodies. […] Fluorescence signals were observed and photographed using fluorescence microscopy (Olympus; Tokyo, Japan).

IPS cells [4] = test: Affymetrix array-based gene expression profiling; format: cell-based, mouse
Description: as §1
(§2) Approximately 60% treated iPS cells were positive for Nkx-2.5. Given that posttranscriptional regulation is crucial for gene expression and cell survival molecular phenotypic analysis was performed, Affymetrix array-based gene expression profiling further confirmed 2-3 folds downregulation of Dnmt1, Dnmt3b and Max gene associated protein which were associated with global DNA hypomethylation and myc dependent cell transformation (see Table 1). Additionally, there was a 2-3 fold concomitant upregulation in the CCL7, CXCR2, CXCR5, integral membrane protein 2A, and ephrin A3. (FIG. 6).
Affymetrix array-based gene expression profiling further confirmed 2-3 folds downregulation of Dnmt1, Dnmt3b and Max gene associated protein which were associated with global DNA hypomethylation and myc dependent cell transformation. In addition, there was 2-3 folds concomitant upregulation of CCL7, CXCR2, CXCR5, integral membrane protein 2A, and EphrinA3.

IPS cells [5] = test: miR microarray analysis; format: cell-based, mouse; conditions: treated vs non-treated IPS cells
Description: FIGS. 7A-7E show miR-microarray analysis of small molecule, isoxazole like compounds treated IPS vs non-treated IPS cells. Microarray analysis showing miR expression profile in non-treated IPS cells was quite different from small molecule treated IPS cells.
as §2

Gαi = test: Western blot of Gα protein (GPCR signaling); format: cell-based, mouse
[6] = tested on: Human iPSC line (ACS-1021); test: Generation of cardiac progenitor cells from human iPS cells and differentiation into three lineages; format: cell-based
[7] = tested on: Skeletal myoblasts (SMs) from Oct3/4-GFP+ transgenic mouse; test: Reprogramming of skeletal myoblasts to iPS cells; format: cell-based; conditions: 500 μM in 0.5% DMSO, 5-days; two weeks later
Description: Skeletal myoblasts (SMs) purified from young male Oct3/4-GFP^+ transgenic mouse were treated with DNA methyltransferase inhibitor 500 μM RG-108 in 0.5% DMSO in knock out DMEM for 5-days. […] Although the research described herein was conducted in a murine model, the use of the same markers and agents will provide similar if not identical results in human cells and tissue.

[8] = Affymetrix array, treated vs non-treated iPS cells
[9] = IPs + Small Molecule, regulation down
[10] = IPs + Small Molecule, regulation up
[11] = basal differentiation conditions
[12] = hiPSC, 7 day small molecule treatment

With O=C(NC1CC1)c1cc(-c2cccs2)on1 [ISX-9, N-cyclopropyl-5-thiophen-2-yl-1,2-oxazole-3-carboxamide] the DNMT activity ([1]; SiPS, 20 uM, five days) was “completely abolished”, the “reduction in global DNA methylation” value ([1]; SiPS, 20 uM, five days, FIG. 2) was 95% and the “inhibition of DNA methyltransferase activity” value ([1]; treated IPS cells vs nontreated IPS cells, FIG. 2) was 95%. The “proliferative activity / mitogenic response” value (SiPS) was “increased proliferative activity; also recorded: increase in mitogenic response”, the “apoptosis (TUNEL positive cells)” value (IPS cells [2]) was “tolerant to apoptosis; also recorded: reduced the apoptosis; also recorded: Fewer TUNEL positive cells/microscopic field” and the “cytochrome c translocation to cytoplasm” value (IPS cells [3]) was “significant decrease”. For the same compound, the “treated iPS cells positive for Nkx-2.5” value (Nkx-2.5; SiPS, 20 uM, five days) was “Approximately 60%”, the “Nkx-2.5 expression, RT-PCR” value (Nkx-2.5; treated vs non treated IPS, p<0.01) was “significant upregulation” and the “downregulation of Dnmt1, Dnmt3b and Max gene associated protein” value (IPS cells [4]; [8]) was 2-3 folds. The “upregulation of CCL7, CXCL2, CXCL5, integral membrane protein 2A and ephrin A3” value (IPS cells [4]; [8]) was 2-3 fold, the “Fold change Dnmt1, DNA methyltransferase” value (IPS cells [4]; [9]) was −1.612 fold and the “Fold change Dnmt3b, DNA methyltransferase 3B” value (IPS cells [4]; [9]) was −1.282 fold. The “Fold change Mga, MAX gene associated protein” value (IPS cells [4]; [9]) was −1.104 fold, the “Fold change Ccl7, chemokine (C-C motif) ligand 7” value (IPS cells [4]; [10]) was 3.316 fold and the “Fold change Cox6b1, cytochrome c oxidase subunit VIb polypeptide 1” value (IPS cells [4]; [10]) was 2.546 fold. For the same compound, the “Fold change Cox16, COX16 cytochrome c oxidase assembly homolog” value (IPS cells [4]; [10]) was 3.006 fold, the “Fold change Cxcl2, chemokine (C-X-C motif) ligand 2” value (IPS cells [4]; [10]) was 2.732 fold and the “Fold change Cxcl5, chemokine (C-X-C motif) ligand 5” value (IPS cells [4]; [10]) was 2.137 fold. The “Fold change Efna3, ephrin A3” value (IPS cells [4]; [10]) was 2.088 fold, the “Fold change Itm2a, integral membrane protein 2A” value (IPS cells [4]; [10]) was 2.255 fold and the “Fold change Itm2b, integral membrane protein 2B” value (IPS cells [4]; [10]) was 2.18 fold. The “Fold change Uqcr10, ubiquinol-cytochrome c reductase complex III subunit X” value (IPS cells [4]; [10]) was 2.298 fold, the “cardiac specific miR-133, miR-762 expression” value (IPS cells [5]) was “upregulation” and the “pluripotency associated miR-290 cluster, miR-574-5p and let-7 family expression” value (IPS cells [5]) was “down regulation”. For the same compound, the “Gαi / Gα (pan) protein level” value (Gαi; Western blot, treated vs untreated IPS cells) was “significant upregulation”, the “expression of CPC markers including Nkx2.5 and GATA4, RT-PCR and immunostaining” value ([6]; 20 μM, 7 days, RPMI/B27 minus insulin) was “observed” and the “spontaneous beating (cardiomyocyte differentiation)” value ([6]; 7 days treatment, then RPMI/B27 with insulin 7-10 days, end of 20 days) was “all the cells began spontaneous beating”. The “percentage of CMs (TnT+) from Nkx2.5+ cells” value [6, 11] was 95.2±2.1%, the “percentage of ECs (CD31+) from Nkx2.5+ cells” value [6, 11] was 90.3±2.5% and the “percentage of SMCs (α-SMA+) from Nkx2.5+ cells” value [6, 11] was 92.3±1.8%. The “purity of Nkx2.5 positive cells by FACS” value [6, 12] was 96.5±2.5%, the “transcription factors (Nkx2.5, GATA4 and ISL-1), immunofluorescence staining” value [6, 12] was “highly expressed” and the “α-SMA and calponin expression, immunostaining” value ([6]; induced CPC in DMEM-F12 with TGFβ and PDGFBB, 10 days) was “observed”. For the same compound, the “endothelial cell markers CD31 and VE-cadherin” value ([6]; induced CPC in EGM-2 medium, 10 days) was “expressed” and the “converting iPSC into cardiac progenitors including endothelial/vascular progenitors and smooth muscle cells” value ([6]; overall conclusion) was “very effective”.
With O=C(O)C(Cc1c[nH]c2ccccc12)N1C(=O)c2ccccc2C1=O [RG-108, N-phthalyl-L-tryptopha] the “generation of iPS cell colonies” value [7] was “GFP^+ colonies of SM derived iPS cells (SiPS)”.
In the case of pertussis toxin, the “effect on small molecule induced Gα (pan) upregulation” value (Gαi; concomitant use with small molecule in IPS cells) is reported as “blocked”.
